Assay results: PubChem BioAssay AID1648 (Sanford-Burnham Center for Chemical Genomics, 2009)
Activity calls are given as the source filed them. No rule for the calls is given here.

These compounds were tested against Serine/threonine-protein kinase mTOR (Homo sapiens) (UniProt P42345) (assay: mTOR FRB domain ligand binding – biophysical, NMR (AID 1648)). Conditions: NMR binding to FRB domain, chemical shift.
Sequence of Serine/threonine-protein kinase mTOR (Homo sapiens) (P42345 2015-2114): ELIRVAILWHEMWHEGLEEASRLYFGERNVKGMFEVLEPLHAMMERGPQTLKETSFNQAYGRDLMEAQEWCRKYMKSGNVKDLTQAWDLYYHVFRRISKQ

Row | SMILES | Kd
1 | CC(=O)O[C@@H]1C[C@@]2(C)[C@H](c3ccoc3)C[C@H]3O[C@]32[C@]2(C)C(=O)C(O)=C3C(C)(C)C(=O)C=C[C@]3(C)C12 (stereo partly specified) | > 4 mM (inactive)
2 | COC(=O)c1nc(-c2ccccc2)oc1N(C)C | > 4 mM (inactive)
3 | NS(=O)(=O)c1ccc(NC(=O)C2CC2)cc1 | > 4 mM (inactive)
4 | O=c1[nH]cc(COCc2ccccc2)c(=O)[nH]1 | > 4 mM (inactive)
5 | O=C(CSc1ncn[nH]1)c1ccccc1 | > 4 mM (inactive)
6 | OCC1CNc2ccccc2O1 (stereo unspecified) | > 4 mM (inactive)
7 | CC(=O)Nc1ccc(N2CCOCC2)cc1 | > 4 mM (inactive)
8 | CC(C)CCCC(C)[C@H]1CCC2C3CC[C@@H]4C[C@H](O)CC[C@]4(C)C3CC[C@@]21C (stereo partly specified) | > 4 mM (inactive)
9 | COC(CC(=O)O)c1nc2ccccc2s1 (stereo unspecified) | > 4 mM (inactive)
10 | Nc1ccc(OC(F)(F)F)cc1 | > 4 mM (inactive)
11 | O=C1CCCN1C(=O)c1ccc(F)cc1 | > 4 mM (inactive)
12 | Cc1oc(-c2ccccc2)cc1CO | > 4 mM (inactive)
13 | O=C1CSC(=S)N1Cc1cccnc1 | > 4 mM (inactive)
14 | Oc1ccc(C(=S)N2CCCCC2)cc1Cl | > 4 mM (inactive)
15 | COc1ccc(N=C2NC(=O)CS2)cc1 | > 4 mM (inactive)
16 | Cn1nc(C(=O)N2CCCC2)c2ccccc2c1=O | > 4 mM (inactive)
17 | Cc1ccc(-n2ncc(C#N)c2/N=C/N(C)C)cc1 | > 4 mM (inactive)
18 | O=C(NCc1ccco1)c1nc2ncccn2n1 | > 4 mM (inactive)
19 | NC(=O)c1ccc(Cl)c(N2C(=O)CCC2=O)c1 | > 4 mM (inactive)
20 | NS(=O)(=O)c1ccc(NC(=O)c2cccs2)cc1 | > 4 mM (inactive)
21 | NCc1ccc(-c2cccs2)cc1 | > 4 mM (inactive)
22 | CNC(=S)Nc1ncn(Cc2cccc(F)c2)n1 | > 4 mM (inactive)

Row | SMILES | Kd
23 | CSc1ncnc2nc[nH]c12 | > 4 mM (inactive)
24 | O=C(O)CCc1nc2ccccc2[nH]c1=O | > 4 mM (inactive)
25 | COc1cc2c(cc1O)CC1c3c(cc(O)c(OC)c3-2)CCN1C (stereo unspecified) | > 4 mM (inactive)
26 | COc1cccc(-c2cc(=O)c3cc(OC)ccc3o2)c1 | > 4 mM (inactive)
27 | C/C1=C\CCC(=O)C2CC(C)(C)C2CC1 (stereo unspecified) | > 4 mM (inactive)
28 | Cn1cnc2c(cnn2-c2ccccc2)c1=O | > 4 mM (inactive)
29 | CCOC(=O)c1c(C)nc2cc(C)ccn12 | > 4 mM (inactive)
30 | Cc1ccc(N2CCN(C(=O)c3ccccc3)CC2)c(C)c1 | > 4 mM (inactive)
31 | NC(=O)CCn1c(=O)oc2ccccc21 | > 4 mM (inactive)
32 | O=S(=O)(O)c1cc[n+]([O-])cc1 | > 4 mM (inactive)
33 | O=C(NC1=NCCS1)c1ccc2snnc2c1 | > 4 mM (inactive)
34 | Nn1cnn2c(SCc3ccccc3)nnc12 | > 4 mM (inactive)
35 | CCOc1ccccc1C(=O)NC1=NCCS1 | > 4 mM (inactive)
36 | Cc1cc(C(=O)NC(C)c2ccncc2)no1 (stereo unspecified) | > 4 mM (inactive)
37 | CCCn1cnn2c(=O)cc(C)nc12 | > 4 mM (inactive)
38 | S=c1ccc(N2CCCCC2)n[nH]1 | > 4 mM (inactive)
39 | CC(=O)OC1CCC23C(=O)OC45CCC(C6=CC(=O)OC6)C4(C)CCC2C5CCC3(O)C1 (stereo unspecified) | > 4 mM (inactive)
40 | CCc1ccccc1NC(=O)c1cnccn1 | > 4 mM (inactive)
41 | NC(=O)CSc1ccc(-c2ccco2)nn1 | > 4 mM (inactive)
42 | COc1cc(O)c(C)c(O)c1 | > 4 mM (inactive)
43 | NS(=O)(=O)c1ccc(N=Cc2cccs2)cc1 | > 4 mM (inactive)
44 | NCCc1c[nH]c2ccccc12 | > 4 mM (inactive)

Row | SMILES | Kd
45 | O=C(O)CC12CC3CC(CC(O)(C3)C1)C2 | > 4 mM (inactive)
46 | Cc1n[nH]c(C)c1-c1ccccc1C(=O)O | > 4 mM (inactive)
47 | Cc1[nH]c2ccccc2c(=O)c1CO | > 4 mM (inactive)
48 | CC(C)(O)[C@@H]1[C@H]2OC(=O)[C@@H]1[C@]1(O)C[C@H]3O[C@]34C(=O)O[C@H]2[C@]14C | > 4 mM (inactive)
49 | Nc1nc(-c2cccnc2)nn1C(=O)Cc1ccccc1 | > 4 mM (inactive)
50 | OC[C@@H](O)[C@@H](O[C@@H]1O[C@H](CO)[C@@H](O)[C@H](O)[C@H]1O)[C@H](O)[C@@H](O)CO | > 4 mM (inactive)
51 | O=[N+]([O-])c1ccc(/C=N/c2ncn[nH]2)cc1 | > 4 mM (inactive)
52 | O=C1CC2OCC=C3CN4CC[C@]56c7ccccc7N1C5[C@H]2[C@H]3CC46 (stereo partly specified) | > 4 mM (inactive)
53 | Cc1ccc(CNc2ccc(O)cc2)cc1 | > 4 mM (inactive)
54 | CC(=O)Nc1cccc(-c2n[nH]c(=S)n2C)c1 | > 4 mM (inactive)
55 | CC12CCC3C(CC3(C)C)C(C)(CCC1=O)O2 (stereo unspecified) | > 4 mM (inactive)
56 | Cc1cc(C(=O)N2CCOCC2)c(C)o1 | > 4 mM (inactive)
57 | Nc1cccc(C(=O)Nc2ccc(N)cc2Cl)c1 | > 4 mM (inactive)
58 | Cc1cc(C(=O)NN2CCOCC2)c(C)o1 | > 4 mM (inactive)
59 | O=C(O)C1C(=O)NCC1c1ccccc1 (stereo unspecified) | > 4 mM (inactive)
60 | S=C(NCc1cccnc1)NC1CC1 | > 4 mM (inactive)
61 | Oc1ccc([C@H]2Oc3cc(O)cc(O)c3C[C@H]2O)cc1 | > 4 mM (inactive)
62 | CNC(C)[C@H](O)c1ccccc1 (stereo partly specified) | > 4 mM (inactive)
63 | CC(=O)Nc1ccc(NC(=O)N2CCOCC2)cc1 | > 4 mM (inactive)
64 | Cc1nnc(SCc2ccc(F)cc2)s1 | > 4 mM (inactive)
65 | Cn1ncc(NC(=O)Nc2ccc(F)cc2F)c1C(N)=O | > 4 mM (inactive)
66 | O=C(NN1CCOCC1)c1ccccc1F | > 4 mM (inactive)

Row | SMILES | Kd
67 | Cc1occc1C(=O)Nc1nccs1 | > 4 mM (inactive)
68 | CC(=O)Oc1c2c(c(CC=C(C)C)c3c1C(=O)C1=C[C@@H]4CC5C(C)(C)OC(C/C=C(\C)C(=O)O)(C4=O)[C@@]15O3)OC(C)(CCC=C(C)C)C=C2 (stereo partly specified) | > 4 mM (inactive)
69 | Fc1cccc(F)c1CN1CCN(c2ncccn2)CC1 | > 4 mM (inactive)
70 | O=C1N=c2ccccc2=C1c1[nH]c(=S)[nH]c1O | > 4 mM (inactive)
71 | OC1COCc2nc3ccccc3n2C1 (stereo unspecified) | > 4 mM (inactive)
72 | CC(C)=CCC[C@](C)(O)C1CC=C(C)CC1 (stereo partly specified) | > 4 mM (inactive)
73 | O=c1n(-c2cccc(Cl)c2)c(=O)n2n1CCC2 | > 4 mM (inactive)
74 | Cc1cc(C(=O)N2CCN(c3ccccn3)CC2)c(C)o1 | > 4 mM (inactive)
75 | O=C(Nc1cccnc1)c1c(F)c(F)c(F)c(F)c1F | > 4 mM (inactive)
76 | CCN1CCC(NC2CCC(O)CC2)CC1 (stereo unspecified) | > 4 mM (inactive)
77 | Oc1ccc2c(c1)OCC1(O)Cc3cc(O)c(O)cc3C21 (stereo unspecified) | > 4 mM (inactive)
78 | COC(=O)[C@]1(C)CCC[C@]2(C)c3ccc(C(C)C)cc3C(=O)CC12 (stereo partly specified) | > 4 mM (inactive)
79 | S=C(NC1=NCCS1)Nc1ccccc1 | > 4 mM (inactive)
80 | COc1ccc2c(c1OC)C(=O)OC2[C@H]1c2c(cc3c(c2OC)OCO3)CCN1C (stereo partly specified) | > 4 mM (inactive)
81 | CC1(C(=O)O)CC2C=CC1C2 (stereo unspecified) | > 4 mM (inactive)
82 | Nc1nc(SCc2ccc3c(c2)OCCO3)n[nH]1 | > 4 mM (inactive)
83 | COc1c(C(=O)N2CCCC2)ccc2ccccc12 | > 4 mM (inactive)
84 | Cc1ccc(C)n1NC(=O)c1ccco1 | > 4 mM (inactive)
85 | CC(=O)C1=C(O)C(=O)NC1c1ccccc1 (stereo unspecified) | > 4 mM (inactive)
86 | CC(C)=NNC(=O)C(=O)Nc1ccc(F)cc1 | > 4 mM (inactive)
